The term MIC denotes the smallest concentration in the dilution series that meets the test's criterion for growth inhibition. Read a low MIC as greater potency.

In DBAASP one finds MIC data, which are given here for ten compounds.

In brackets after ≈: the same amount, converted by molar mass. Several values for one entry are separate records, joined by “and”; a condition that tells them apart may be missing. Equal entries are not always repeated.

What all share (experiment): ≥ marks a high value that may be exact or a test limit, other limits are often not marked, values filed in µg/mL are converted to µM
Experiment [1] has as its system Staphylococcus aureus ATCC 33592.
Experiment [2] has as its system Escherichia coli MG1655.
Experiment [3] has as its system Staphylococcus aureus TK784.
Experiment [4] deals with Staphylococcus aureus ATCC 6538P.
The test system of experiment [5] is Shigella dysenteriae ATCC 9752.
The subject of experiment [6] is Escherichia coli ATCC 25922.
The test system of experiment [7] is Pseudomonas aeruginosa ATCC 27853.
Experiment [8] relates to Bacillus subtilis ATCC 6633.
The subject of experiment [9] is Salmonella enterica subsp. enterica serovar Typhimurium ATCC 14028.
For experiment [10], the system named is Staphylococcus epidermidis ATCC 12228.
Experiment [11] relates to Micrococcus luteus ATCC 10240.
Experiment [12] deals with Klebsiella pneumoniae ATCC 10031.
Experiment [13] has as its system Candida albicans ATCC 200955.
The test system of experiment [14] is Staphylococcus aureus ATCC 33591.
The test system of experiment [15] is Enterococcus faecium ATCC 700221.
Experiment [16] has as its system Staphylococcus aureus ATCC 25923.
For experiment [17], the system named is Batrachochytrium dendrobatidis.
The test system of experiment [18] is Leuconostoc lactis.
The test system of experiment [19] is Listeria innocua.
Experiment [20] deals with Pasteurella multocida.
Experiment [21] deals with Staphylococcus aureus.
In experiment [22] the test system is Streptococcus uberis.
Experiment [23] deals with Staphylococcus epidermidis.
For experiment [24], the system named is Micrococcus luteus.
Experiment [25] has as its system Bacillus cereus.
Experiment [26] relates to Escherichia coli.
Experiment [27] relates to Escherichia coli ML-35p.
Experiment [28] deals with Staphylococcus aureus ATCC 700699.
Experiment [29] has as its system Escherichia coli W160-37.
Experiment [30] concerns Pseudomonas aeruginosa.
Experiment [31] deals with Staphylococcus aureus ATCC 29213.
Experiment [32] has as its system Klebsiella pneumoniae ATCC 700603.

For the compound `CC[C@H](C)[C@H](NC(=O)[C@H](Cc1c[nH]c2ccccc12)NC(=O)[C@H](CO)NC(=O)CNC(C)=O)C(=O)N[C@@H](CCCCN)C(=O)N[C@@H](CCCN=C(N)N)C(=O)N[C@@H](CC(C)C)C(=O)N[C@@H](CC(N)=O)C(=O)N[C@@H](CO)C(=O)N[C@@H](Cc1c[nH]c2ccccc12)C(=O)N[C@@H](CC(C)C)C(=O)N[C@@H](CCCN=C(N)N)C(=O)N[C@@H](CCCCN)C(N)=O` [GSWIKRLNSWLRK], the minimal inhibitory concentration (MIC) is ≥ 38.9 µM in [1]; 4 µM and 8 µM in experiment [2].
As for `CC(C)C[C@H](NC(=O)[C@H](Cc1c[nH]c2ccccc12)NC(=O)[C@H](CCCCN)NC(=O)[C@H](CC(C)C)NC(=O)[C@H](CC(C)C)NC(=O)[C@H](CCCCN)NC(=O)[C@H](CCCCN)NC(=O)[C@H](CC(C)C)NC(=O)[C@@H](N)CC(C)C)C(=O)N[C@@H](CCCCN)C(=O)N[C@@H](CCCCN)C(N)=O` [LLKKLLKWLKK], the MIC was 11.3 µM (≈ 16 µg/mL) in experiment [3]; 1.42 µM (≈ 2 µg/mL) in experiment [4]; 2.84 µM (≈ 4 µg/mL) in experiment [5]; 2.84 µM (≈ 4 µg/mL) in experiment [6]; 5.67 µM (≈ 7.99 µg/mL) in [7]; 2.84 µM (≈ 4 µg/mL) in experiment [8]. The minimum inhibitory concentration (MIC) in experiment [9], in experiment [10], in [11] and in experiment [12] was 2.84 µM (≈ 4 µg/mL) each time.
With `CC[C@H](C)[C@H](NC(=O)[C@H](CCCCN)NC(=O)[C@H](CCCCN)NC(=O)[C@H](CC(C)C)NC(=O)[C@H](CC(C)C)NC(=O)CN)C(=O)N[C@@H](CCCCN)C(=O)N[C@H](C(=O)N[C@@H](CC(C)C)C(=O)N[C@@H](CC(C)C)C(N)=O)[C@@H](C)O` [GLLKKIKTLL], the MIC was ≥ 56.8 µM in experiment [13]; 56.8 µM (≈ 63.9 µg/mL) in experiment [7]; ≥ 512 µM in [14]; ≥ 171 µM in experiment [15]; 19.5 µM (≈ 22 µg/mL) in [16].
Regarding `CC[C@H](C)[C@H](NC(=O)[C@H](CO)NC(=O)CNC(=O)[C@H](CC(C)C)NC(=O)[C@@H](NC(=O)CNC(=O)[C@H](Cc1ccccc1)NC(=O)[C@H](CC(C)C)NC(=O)CN)C(C)C)C(=O)N[C@@H](C)C(=O)N[C@@H](CCCCN)C(=O)N[C@@H](Cc1cnc[nH]1)C(=O)N[C@H](C(=O)N[C@@H](CC(C)C)C(=O)N1CCC[C@H]1C(=O)N[C@@H](Cc1cnc[nH]1)C(=O)N[C@H](C(=O)N[C@H](C(=O)N1CCC[C@H]1C(=O)N[C@H](C(=O)N[C@H](C(=O)N[C@@H](C)C(=O)N[C@@H](CCC(=O)O)C(=O)N[C@@H](CCCCN)C(=O)N[C@@H](CC(C)C)C(N)=O)[C@@H](C)CC)C(C)C)C(C)C)C(C)C)C(C)C` [GLFGVLGSIAKHVLPHVVPVIAEKL], the MIC was ≥ 35.4 µM in experiment [17]; 4.63 µM (≈ 12 µg/mL) in experiment [18]; 19.3 µM (≈ 50 µg/mL) in experiment [19]; 19.3 µM (≈ 50 µg/mL) in experiment [20]; 4.63 µM (≈ 12 µg/mL) in experiment [21]; 19.3 µM (≈ 50 µg/mL) in experiment [22]. The MIC in experiment [23] was 9.64 µM (≈ 25 µg/mL); in experiment [24], 19.3 µM (≈ 50 µg/mL); in experiment [25] it was ≥ 38.5 µM; in experiment [26], > 38.5 µM.
For `CC(C)C[C@H](NC(=O)[C@H](Cc1c[nH]c2ccccc12)NC(=O)[C@H](CCCCN)NC(=O)[C@H](CCCCN)NC(=O)[C@H](CC(C)C)NC(=O)[C@H](Cc1c[nH]c2ccccc12)NC(=O)[C@H](CCCCN)NC(=O)[C@@H](N)CCCCN)C(=O)N[C@@H](CCCCN)C(N)=O` [KKWLKKWLK], the minimal inhibitory concentration (MIC) in experiment [3] is ≥ 63.6 µM; in [4] it was 31.8 µM (≈ 40 µg/mL); in [5], ≥ 63.6 µM; in experiment [6] it was 31.8 µM (≈ 40 µg/mL); in experiment [7], 63.6 µM (≈ 79.9 µg/mL); in experiment [8], ≥ 63.6 µM. Further, the minimal inhibitory concentration (MIC) was > 63.6 µM in experiment [9], > 63.6 µM in [10], ≥ 63.6 µM in experiment [11] and ≥ 63.6 µM in [12].
As to `CC(=O)NCC(=O)N[C@@H](Cc1ccccc1)C(=O)N[C@@H](CCCN=C(N)N)C(=O)N[C@@H](CCCCN)C(=O)N[C@@H](Cc1ccccc1)C(=O)N[C@@H](Cc1cnc[nH]1)C(=O)N[C@@H](CCCCN)C(=O)N[C@@H](Cc1ccccc1)C(=O)N[C@@H](Cc1c[nH]c2ccccc12)C(=O)N[C@@H](C)C(N)=O` [GFRKFHKFWA], the minimum inhibitory concentration (MIC) in experiment [27] and in experiment [28] was ≥ 500 µM throughout.
With `CC[C@H](C)[C@H](NC(=O)[C@H](Cc1c[nH]c2ccccc12)NC(=O)[C@H](CCCCN)NC(=O)[C@H](CO)NC(=O)[C@H](CC(C)C)NC(=O)[C@H](Cc1ccccc1)NC(=O)[C@@H](NC(=O)[C@H](CCCCN)NC(=O)[C@H](CC(C)C)NC(=O)[C@H](CC(C)C)NC(=O)[C@H](CCCCN)NC(=O)[C@@H]1CCCN1)[C@@H](C)O)C(=O)NCC(=O)O` [PKLLKTFLSKWIG], the minimum inhibitory concentration (MIC) in experiment [21] came to 3.27 µM (≈ 5 µg/mL); in [29] it was 4.57 µM (≈ 7 µg/mL); in experiment [30], 19.6 µM (≈ 30 µg/mL).
On to `CC[C@H](C)[C@H](NC(=O)[C@H](CC(=O)O)NC(=O)[C@H](CCCCN)NC(=O)[C@H](C)NC(=O)[C@H](CC(C)C)NC(=O)CNC(=O)[C@H](CCCCN)NC(=O)[C@H](CC(C)C)NC(=O)[C@@H](NC(=O)[C@H](CC(=O)O)NC(=O)[C@@H](NC(=O)[C@@H](NC(=O)CN)C(C)C)C(C)C)[C@@H](C)CC)C(=O)N[C@@H](C)C(=O)NCC(=O)N[C@@H](Cc1cnc[nH]1)C(=O)N[C@@H](CC(C)C)C(=O)N[C@@H](C)C(=O)N[C@@H](CO)C(=O)N[C@@H](CCCCN)C(=O)N[C@H](C(=O)N[C@@H](CCSC)C(=O)N[C@@H](CC(N)=O)C(=O)N[C@@H](CCCCN)C(=O)N[C@@H](CC(C)C)C(N)=O)C(C)C` [GVVDILKGLAKDIAGHLASKVMNKL], for which the minimal inhibitory concentration (MIC) in experiment [28] was ≥ 50 µM; in experiment [6], 12.5 µM (≈ 32.4 µg/mL); in [7], 100 µM (≈ 259 µg/mL); in experiment [31], 50 µM (≈ 130 µg/mL); in experiment [32] it was 50 µM (≈ 130 µg/mL); in experiment [14], 25 µM (≈ 64.8 µg/mL).
On to `CC[C@H](C)[C@H](NC(=O)[C@H](CCCCN)NC(=O)[C@H](CCCN=C(N)N)NC(=O)[C@@H]1CCCN1C(=O)[C@@H](NC(=O)[C@H](CC(C)C)NC(=O)[C@H](CCCCN)NC(=O)[C@H](CC(C)C)NC(=O)[C@@H](N)Cc1ccccc1)[C@@H](C)CC)C(=O)N[C@H](C(=O)N[C@H](C(=O)N[C@@H](C)C(=O)N[C@@H](CC(C)C)C(N)=O)[C@@H](C)O)C(C)C` [FLKLIPRKIVTAL], for which the minimal inhibitory concentration (MIC) in [29] was ≥ 265 µM.
As to `CC(C)C[C@H](NC(=O)[C@H](Cc1c[nH]c2ccccc12)NC(=O)[C@H](CCCCN)NC(=O)[C@H](CCCCN)NC(=O)[C@H](CC(C)C)NC(=O)[C@H](Cc1c[nH]c2ccccc12)NC(=O)[C@@H](N)CCCCN)C(N)=O` [KWLKKWL], the MIC in [3] is ≥ 79.9 µM; in experiment [4], ≥ 79.9 µM; in experiment [5] it was ≥ 79.9 µM; in experiment [6], > 79.9 µM; in experiment [7], > 79.9 µM; in [8], ≥ 79.9 µM. Further, the MIC in experiment [9] was > 79.9 µM; in experiment [10], > 79.9 µM; in experiment [11], ≥ 79.9 µM; in [12], ≥ 79.9 µM.
